In US6936634B2, “Ruthenium (II) compounds for use in the therapy of cancer” (The University Court, The University of Edinburgh (UK), priority 2000, dated 2005) one finds IC50 data, which are given here for 7 compounds.

pIC50: −log10 of the molar value. Like-named read-outs stand apart in the source and are kept apart here.

Holding throughout (format): cell-based
Test [1] relates to A2780 ovarian cancer cell line. Nature of the test: Cell growth inhibition, A2780 ovarian cancer cell line. How it is done:
(§1) The compounds are tested on 24 -well trays. Cells growing in a flask are harvested just before they become confluent, counted using a haemocytometer and diluted down with media to a concentration of 1×10^4 cells per ml. The cells are then seeded in the 24 -well trays at a density of […] (i.e. 1 ml of the diluted cell suspension is added to each well). The cells are then left to plate down and grow for 72 hours before adding the compounds of the invention.
(§2) The Ru complexes are weighed out and made up to a concentration of is 1 mg/ml with deionised water then sonicated, until they go into solution. The appropriate volume of the Ru solution is added to 5 ml of media to make it up to a concentration of 100 μM for each drug. This 100 μM solution is then serially diluted to make up the 10 μM, 1 μM and 0.1 μM solutions.
(§3) The media is removed from the cells and replaced with 1 ml of the media dosed with drug. Each concentration is done in duplicate. A set of control wells are left on each plate, containing media without drug.
(§4) The cells are left exposed to the drugs for 24 hours and then washed with phosphate buffered saline before fresh media is added.
(§5) They are allowed to grow on for a further 3 days before being counted using a Coulter counter.
(§6) • Media is removed and 1 ml of PBS is added to the cells. • 250 μl of trypsin is added and cells left in incubator for a few minutes to allow the monolayers to detach. • Once trypsinised, 250 μl of media is added to each well to neutralise the trypsin. 200 μl of this suspension is added to 10 ml of NaCl for counting. 2. Results
Using the above protocol, a number of compounds of the invention were tested on A2780 ovarian cancer cell line.

In test [2] the test system is A2780 cis, variant of A2780 showing resistance to cis-platin. Description: Cell growth inhibition, A2780 cis (cis-platin resistant variant). Particulars: 24 hours exposure. How it is done: as §1, §2, §3, §4, §5, §6
(§7) The experiments were repeated to investigate the effect of the compounds of the invention on drag-resistant variants of the A2780 cell line.

For test [3], the system named is A2780 AD, variant of A2780 showing resistance to adriomycin. Description: Cell growth inhibition, A2780 AD (adriomycin resistant variant). Particulars: multidrug resistant, over expresses p glycoprotein, 24 hours exposure. How it is done: as §1, §2, §3, §4, §5, §6, §7
Where [4] appears, read: A2780, repeated experiments with drug-resistant variants, 24 hours exposure, read-out: IC50 A2780.
The mark [5] stands for this setting: A2780 ovarian cancer cell line, 24 hours drug exposure, counted after a further 3 days, first experiment, read-out: IC50.

As for `C1=CCC2=C(C1)Cc1ccccc1C2.F[P-](F)(F)(F)(F)F.NCCN.[Cl][Ru+]` [Example 1, [(η^6-C14H14)RuCl(en)]^+PF6], the pIC50 (in general, the IC50 on a negative log10 scale, so that one unit is a factor of ten) is 6.30 in test [1] (setting [4]), 6.30 in test [1] (setting [5]), 6.00 in test [2] and 3.48 in test [3].
Regarding `C1=CCC2=C(C1)Cc1ccccc1C2.[Cl][Ru][Cl]` [Example 2, [(η^6-C14H14)RuCl2(DMSO)]], the negative-log IC50 (pIC50) was 4.03 in test [1] (setting [4]), 4.03 in test [1] (setting [5]), 3.31 in test [2] and 5.40 in test [3].
Turning to `C1=CCC2=C(C1)Cc1ccccc1C2.CC#N.CC#N.F[P-](F)(F)(F)(F)F.[Cl][Ru+]` [Example 3, [(η^6-C14H14)RuCl(CH3CN)2]^+PF6^−], the pIC50 was 3.94 in test [1] (setting [4]), 3.75 in test [1] (setting [5]), 5.70 in test [2] and 5.70 in test [3].
Turning to `F[P-](F)(F)(F)(F)F.NCCN.[Cl][Ru+].c1ccc2c(c1)Cc1ccccc1C2` [Example 4, [η^6-C14H12)RuCl(en)]^+PF6−], the pIC50 in test [1] (setting [4]) was 5.70; in test [1] (setting [5]), 6.52; in test [2], 4.80; in test [3], 3.98.
In the same order, the values of `[Cl][Ru][Cl].c1ccc2c(c1)Cc1ccccc1C2` [Example 5, [(η^6-C14H12)RuCl2(DMSO)]] are 3.90, 4.17, 5.70 and 5.30.
As for `CC#N.CC#N.F[P-](F)(F)(F)(F)F.[Cl][Ru+].c1ccc2c(c1)Cc1ccccc1C2` [Example 6, [(η^6-C14H12)RuCl(CH3CN)2]^+PF6^−], the negative-log IC50 (pIC50) in test [1] (setting [4]) is 3.72; in test [1] (setting [5]) it was 3.50; in test [2], 5.70; in test [3], 6.05.
Take “{[(η^6-C14H14)RuCl]2[H2N(CH2)2NH(CH2)6NH(CH2)2NH2−N,N′N″,N′″]}^2+.2PF6^− [Example 7]”: the negative-log IC50 (pIC50) in test [1] (setting [5]) is 5.22.
